Tests used:
Format in all cases: biochemical
HIF PHD2 = HIF PHD2 (Homo sapiens, UniProt Q9GZT9); test: PHD2 inhibition assay, TR-FRET detection with VCB-Eu
Description: Inhibition of HIF PHD2 activity was quantified utilizing the TR-FRET technology. HIF PHD2 catalyzes a hydroxyl modification on the proline residue of the P564-HIF1α peptide substrate (Biotin-[…] (SEQ ID NO: 7)) resulting in recognition and binding of the europylated Von Hippel-Lindau protein (pVHL), elongin B and elongin C heterotrimeric (VCB-Eu) complex.
The PHD2 inhibition assay was executed by addition of freshly dissolved FeCl2 to 178.57 μM (100 μM final concentration) in PHD2 Reaction Buffer containing 30 mM MES, pH 6, 10 mM NaCl, 0.25% Brij-35, 0.01% BSA, and 1% DMSO. 28 μL of the iron solution and 2 μL of inhibitor compounds serially diluted in 100% DMSO (5% DMSO final) were added to black polypropylene 96-well microtiter plates. To that, 10 μL of 10 nM PHD2 (2 nM final) was added to all wells of the plate except for the 8 wells of column 12 (LO control), and allowed to incubate at room temperature on the shaker for one hour. Column 6 was the HI control containing PHD2 enzyme and 5% DMSO vehicle, but no inhibitor compound. To initiate the PHD2 enzymatic reaction, 10 μL of a solution containing 500 nM P564-HIF1α peptide (100 nM final), 10 mM ascorbic acid (2 mM final), and 1.25 μM 2-oxoglutarate (α-ketoglutarate; 0.25 μM final) in PHD2 Reaction Buffer was added to all wells of the plate and allowed to incubate on the shaker at room temperature for one hour.
The reaction was terminated by addition of 25 μL TR-FRET Buffer (50 mM TRIS-HCl, pH 9, 100 mM NaCl, 0.05% BSA, and 0.5% Tween-20) containing 150 mM succinate (product inhibitor; 50 mM final), 75 nM streptavidin-APC (25 nM final), and 7.5 nM VCB-Eu (2.5 nM final). The TR-FRET detection reagents were placed on a shaker for 1 hour to reach binding equilibrium before reading on the Discovery platform (PerkinElmer). Europium is excited at 315 nm and phosphoresces at 615 nm with a large Stoke's shift. APC, in turn, emits at 655 nm upon excitation at 615 nm. The TR-FRET signal is measured as the ratio of the APC 655 nm signal divided by the internal europium reference 615 nm emission signal.
The POC (percentage of control) was determined by comparing the signal from hydroxylated peptide substrate in the enzyme reaction containing inhibitor compound with that from PHD2 enzyme with DMSO vehicle alone (HI control), and no enzyme (LO control). POC was calculated using the formula: % control (POC)=(cpd−average LO)/(average HI−average LO)*100. Data (consisting of POC and inhibitor concentration in μM) was fitted to a 4-parameter equation (y=A+((B−A)/(1+((x/C)^[…]))), where A is the minimum y (POC) value, B is the maximum y (POC), C is the x (cpd concentration) at the point of inflection and D is the slope factor) using a Levenburg-Marquardt non-linear regression algorithm.

[1] = target: T1, Collagen Prolyl Hydroxylase I (CPH1) (Homo sapiens, UniProt P13674); test: Collagen prolyl hydroxylase I activity by radiometric HPLC measurement of 2-oxoglutarate conversion to succinic acid; settings: Table 5; 50 μM 2-oxoglutarate, 100 μM PPG10, 10 μM FeSO4
T1 construct: made in house; host or cells: Trichoplusia ni insect cells (baculovirus)
Description: Product inhibition was not evident. Compounds were dissolved and serially diluted in 100% DMSO for potency determination. Assay Buffer consisted of Tris-HCl, pH 7.5, 0.2 mM DTT, and 0.5 mg/ml catalase. PPG10 peptide was dissolved in 0.25% acetic acid and denatured by boiling for 5 minutes then placed on ice for 5 minutes. The denatured PPG10 was then pre-mixed with 1 M ascorbate, prepared in water, and the mixture diluted with Assay Buffer to yield a working solution of 5× peptide and ascorbate. FeSO4 was freshly dissolved in water and diluted to a 2.8× concentration in Assay Buffer. Enzyme stocks were diluted to a 5× concentration in Assay Buffer. Example compounds plus FeSO4 solution were mixed, followed by addition of 5× enzyme solutions. After 10 minutes gentle mixing at room temperature, the 5× peptide solution was added. After another 10 minutes gentle mixing at room temperature, a 5× stock of 2-OG was added to initiate the reaction. Final concentrations in the assay were: 50 mM Tris-HCl, pH 7.5, 0.2 mM DTT, 0.5 mg/mL catalase, 10 μM FeSO4, 100 μM PPG10, 50 μM 5-[^14C]-2-oxoglutarate (23-37 cpm/μmol), 1 mM ascorbate, and 4% DMSO. Reactions were gently mixed at room temperature for 1 hour and terminated by addition of an equal volume of 0.02 NH2SO4.
A portion of each terminated reaction was auto-injected into a Polypore H column (PerkinElmer, Waltham, Mass.) at a rate of 0.3 mL/min with 0.01 N H2SO4 as the mobile phase. […] An Agilent 1100 HPLC System with dual quaternary pumps, column switching valve, and dual columns was used to resolve product from substrate. The Agilent 1100 Multiple Wavelength Detector indicated UV absorption of the substrate and product peaks at 210 nm and a Beta-RAM Model 2 radiation detector with In-Flow 2:1 scintillation cocktail (IN/US Systems Inc.) enabled quantitation of the 2 radioactive peaks. Laura Lite software (IN/US, Tampa, Fla.) was used to collect and analyze radiometric data. AUC measurements were converted to percent turnover of 2-OG. To standardize across studies, 2-OG conversion was normalized to percent of control (POC) values using reactions that lacked enzyme or inhibitor as low and high controls, respectively. POC data was fitted to the 4-parameter logistic model (A+((B−A)/(1+((x/C)^D)))) using ActivityBase (IDBS, Alameda Calif.) where A is the minimum POC value, B is the maximum POC value, D is the slope factor, and C is compound concentration at the inflection point (IC50, micromolar).

[2] = target: T2, Collagen Prolyl Hydroxylase II (CPH2) (Homo sapiens, UniProt O15460); test: Collagen prolyl hydroxylase II activity by radiometric HPLC measurement of 2-oxoglutarate conversion to succinic acid; settings: Table 5; 50 μM 2-oxoglutarate, 100 μM PPG10, 10 μM FeSO4
T2 construct: made in house; host or cells: Trichoplusia ni insect cells (baculovirus)
Description: Assay conditions were established in separate studies to define dependence on dithiothreitol (DTT), ascorbate, and catalase, and to define reaction linearity and Km values for 2-oxoglutarate (2-OG; PerkinElmer LAS, Shelton, Conn. or Moravek Biochemicals, Brea, Calif.), FeSO4, and (Pro-Pro-Gly)10 peptide (PPG10; Peptides International, Louisville, Ky.). […] Product inhibition was not evident. Compounds were dissolved and serially diluted in 100% DMSO for potency determination. Assay Buffer consisted of Tris-HCl, pH 7.5, 0.2 mM DTT, and 0.5 mg/ml catalase. PPG10 peptide was dissolved in 0.25% acetic acid and denatured by boiling for 5 minutes then placed on ice for 5 minutes. The denatured PPG10 was then pre-mixed with 1 M ascorbate, prepared in water, and the mixture diluted with Assay Buffer to yield a working solution of 5× peptide and ascorbate. FeSO4 was freshly dissolved in water and diluted to a 2.8× concentration in Assay Buffer. Enzyme stocks were diluted to a 5× concentration in Assay Buffer. Example compounds plus FeSO4 solution were mixed, followed by addition of 5× enzyme solutions. After 10 minutes gentle mixing at room temperature, the 5× peptide solution was added. After another 10 minutes gentle mixing at room temperature, a 5× stock of 2-OG was added to initiate the reaction. Final concentrations in the assay were: 50 mM Tris-HCl, pH 7.5, 0.2 mM DTT, 0.5 mg/mL catalase, 10 μM FeSO4, 100 μM PPG10, 50 μM 5-[^14C]-2-oxoglutarate ([…]), 1 mM ascorbate, and 4% DMSO. Reactions were gently mixed at room temperature for 1 hour and terminated by addition of an equal volume of 0.02 NH2SO4. Unless otherwise indicated, all reagents were obtained from Sigma and were the highest grade available.
A portion of each terminated reaction was auto-injected into a Polypore H column (PerkinElmer, Waltham, Mass.) at a rate of 0.3 mL/min with 0.01 N H2SO4 as the mobile phase. The HPLC method employed exploits the difference in pKa of the 2-OG and SA carboxylates to chromatographically separate substrate from product at low pH on ion-exchange resin, as described by Cunliffe, et al (Biochem J., 240, 617-619 (1986)) and Kaule and Gunzler (Anal. Biochem., 184, 291-297 (1990)). An Agilent 1100 HPLC System with dual quaternary pumps, column switching valve, and dual columns was used to resolve product from substrate. The Agilent 1100 Multiple Wavelength Detector indicated UV absorption of the substrate and product peaks at 210 nm and a Beta-RAM Model 2 radiation detector with In-Flow 2:1 scintillation cocktail (IN/US Systems Inc.) enabled quantitation of the 2 radioactive peaks. Laura Lite software (IN/US, Tampa, Fla.) was used to collect and analyze radiometric data. AUC measurements were converted to percent turnover of 2-OG. To standardize across studies, 2-OG conversion was normalized to percent of control (POC) values using reactions that lacked enzyme or inhibitor as low and high controls, respectively. POC data was fitted to the 4-parameter logistic model (A+((B−A)/(1+((x/C)^D)))) using ActivityBase (IDBS, Alameda Calif.) where A is the minimum POC value, B is the maximum POC value, D is the slope factor, and C is compound concentration at the inflection point (IC50, micromolar).
The Baculovirus Expression Vector System (BEVS) from Invitrogen was used to express collagen prolyl 4-hydroxylase (CPH) in Trichoplusia ni insect cells. Active collagen prolyl 4-hydroxylase is an oligomeric protein that exists as an α2β2 tetramer. The alpha subunits incorporated into the tetramer can be either collagen prolyl 4-hydroxylase α1 (GenBank reference sequence NM_000917) or collagen prolyl 4-hydroxylase α2 (GenBank reference sequence NM_004199). The beta subunit, collagen prolyl 4-hydroxylase β (GenBank reference sequence NM_000918), is common to both forms of the tetramer. […]

[3] = Table 5, Example and Comparative Compounds
[4] = Table 4, TR-FRET, 2 nM PHD2, 100 nM P564-HIF1α peptide, 0.25 μM 2-oxoglutarate

T1 sequence (P13674 18-534 isoform P13674-2): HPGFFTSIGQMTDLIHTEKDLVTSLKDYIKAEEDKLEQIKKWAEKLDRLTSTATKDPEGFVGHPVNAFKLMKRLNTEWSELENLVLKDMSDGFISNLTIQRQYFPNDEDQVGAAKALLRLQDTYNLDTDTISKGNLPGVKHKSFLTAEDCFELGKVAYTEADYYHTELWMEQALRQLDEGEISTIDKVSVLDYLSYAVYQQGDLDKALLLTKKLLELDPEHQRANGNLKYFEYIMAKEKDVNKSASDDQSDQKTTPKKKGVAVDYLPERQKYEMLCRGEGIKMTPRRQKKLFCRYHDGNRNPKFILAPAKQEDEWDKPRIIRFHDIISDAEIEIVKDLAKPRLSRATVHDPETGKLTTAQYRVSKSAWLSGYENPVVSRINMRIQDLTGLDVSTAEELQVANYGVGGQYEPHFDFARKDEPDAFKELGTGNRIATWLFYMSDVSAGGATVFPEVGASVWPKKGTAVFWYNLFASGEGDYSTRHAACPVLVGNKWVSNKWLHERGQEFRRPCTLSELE
T1 sequence (P07237 18-508 partner): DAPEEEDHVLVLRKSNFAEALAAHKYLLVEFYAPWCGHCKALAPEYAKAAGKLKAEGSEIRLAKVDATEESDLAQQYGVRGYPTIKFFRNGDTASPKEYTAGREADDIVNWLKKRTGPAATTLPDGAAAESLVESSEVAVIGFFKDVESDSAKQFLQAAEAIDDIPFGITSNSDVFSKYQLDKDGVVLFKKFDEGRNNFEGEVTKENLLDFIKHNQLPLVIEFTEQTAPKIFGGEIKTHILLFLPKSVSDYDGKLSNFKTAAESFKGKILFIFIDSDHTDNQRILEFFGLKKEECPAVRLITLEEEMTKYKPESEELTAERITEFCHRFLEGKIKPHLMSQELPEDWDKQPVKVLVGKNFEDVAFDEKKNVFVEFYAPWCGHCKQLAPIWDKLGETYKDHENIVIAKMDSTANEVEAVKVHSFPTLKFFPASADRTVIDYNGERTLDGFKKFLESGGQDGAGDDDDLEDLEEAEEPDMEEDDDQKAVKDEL
Sequence of HIF PHD2 (Q9GZT9 whole entry): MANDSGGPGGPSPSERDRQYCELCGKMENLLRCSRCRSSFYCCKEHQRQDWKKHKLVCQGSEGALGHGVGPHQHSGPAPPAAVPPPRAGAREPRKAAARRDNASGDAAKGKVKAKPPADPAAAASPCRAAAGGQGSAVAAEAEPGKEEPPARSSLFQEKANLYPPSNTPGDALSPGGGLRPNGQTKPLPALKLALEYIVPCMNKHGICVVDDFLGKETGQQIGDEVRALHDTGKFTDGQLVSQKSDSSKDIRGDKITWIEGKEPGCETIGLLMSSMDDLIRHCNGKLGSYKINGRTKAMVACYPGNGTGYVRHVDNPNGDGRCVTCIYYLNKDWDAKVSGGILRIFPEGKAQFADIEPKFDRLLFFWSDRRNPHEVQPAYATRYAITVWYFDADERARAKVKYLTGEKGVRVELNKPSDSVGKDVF
T2 sequence (O15460 22-533 isoform O15460-2): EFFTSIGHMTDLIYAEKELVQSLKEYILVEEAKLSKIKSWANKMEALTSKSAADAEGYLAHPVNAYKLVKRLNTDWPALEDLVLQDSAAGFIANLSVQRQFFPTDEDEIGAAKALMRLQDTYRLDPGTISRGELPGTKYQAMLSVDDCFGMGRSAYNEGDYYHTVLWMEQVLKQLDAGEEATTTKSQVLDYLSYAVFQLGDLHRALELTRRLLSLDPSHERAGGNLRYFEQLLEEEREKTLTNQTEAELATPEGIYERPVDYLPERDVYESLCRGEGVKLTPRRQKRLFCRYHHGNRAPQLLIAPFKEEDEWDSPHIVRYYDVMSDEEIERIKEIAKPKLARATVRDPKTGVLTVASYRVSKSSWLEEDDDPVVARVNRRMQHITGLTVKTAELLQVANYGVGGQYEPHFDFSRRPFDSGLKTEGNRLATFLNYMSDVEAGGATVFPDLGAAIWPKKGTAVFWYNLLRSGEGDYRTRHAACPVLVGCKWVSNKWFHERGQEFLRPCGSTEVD
T2 sequence (P07237 18-508 partner): as the sequence (P07237 18-508 partner) above

Compound | IC50 (HIF PHD2; [3]) [nM] | IC50 [1] [nM] | IC50 [2] [nM] | IC50 (HIF PHD2; [4]) [nM]
Cn1c(=O)c(C(=O)CCC(=O)O)c(O)c2cc(I)cnc21 [Example 1, 4-(4-hydroxy-6-iodo-1-methyl-2-oxo-1,2-dihydro-1,8-naphthyridin-3-yl)-4-oxobutanoic acid] | – | – | – | 208
Cn1c(=O)c(C(=O)CCC(=O)O)c(O)c2cccc(Br)c21 [Example 2, 4-(8-bromo-4-hydroxy-1-methyl-2-oxo-1,2-dihydroquinolin-3-yl)-4-oxobutanoic acid] | – | 22700 | 1870 | 775
Cn1c(=O)c(C(=O)CCC(=O)O)c(O)c2ccc(C(F)(F)F)nc21 [Example 3, 4-(4-hydroxy-1-methyl-2-oxo-7-(trifluoromethyl)-1,2-dihydro-1,8-naphthyridin-3-yl)-4-oxobutanoic acid] | – | – | – | 64.5
Cn1c(=O)c(C(=O)CCC(=O)O)c(O)c2ccc(Br)cc21 [Example 4, 4-(7-bromo-4-hydroxy-1-methyl-2-oxo-1,2-dihydroquinolin-3-yl)-4-oxobutanoic acid] | 64.9 | – | 13400 | 64.9
Cn1c(=O)c(C(=O)CCC(=O)O)c(O)c2ccccc21 [Example 5, 4-(4-hydroxy-1-methyl-2-oxo-1,2-dihydroquinolin-3-yl)-4-oxobutanoic acid] | – | – | – | 566
O=C(O)CCC(=O)c1c(O)c2ccc(F)c(F)c2n(Cc2ccccc2)c1=O [Example 6, 4-(1-benzyl-7,8-difluoro-4-hydroxy-2-oxo-1,2-dihydroquinolin-3-yl)-4-oxobutanoic acid] | – | – | – | 135
Cn1c(=O)c(C(=O)CCC(=O)O)c(O)c2cc(Br)ccc21 [Example 7, 4-(6-bromo-4-hydroxy-1-methyl-2-oxo-1,2-dihydroquinolin-3-yl)-4-oxobutanoic acid] | – | – | 3820 | 309
Cn1c(=O)c(C(=O)CCC(=O)O)c(O)c2c(F)ccc(F)c21 [Example 9, 4-(5,8-difluoro-4-hydroxy-1-methyl-2-oxo-1,2-dihydroquinolin-3-yl)-4-oxobutanoic acid] | – | – | – | 779
Cn1c(=O)c(C(=O)CCC(=O)O)c(O)c2ccc(F)c(F)c21 [Example 10, 4-(7,8-difluoro-4-hydroxy-1-methyl-2-oxo-1,2-dihydroquinolin-3-yl)-4-oxobutanoic acid] | – | – | – | 285
Cn1c(=O)c(C(=O)CCC(=O)O)c(O)c2ccc(-c3ccc(C(=O)O)cc3)cc21 [Example 11, 4-(3-(3-carboxypropanoyl)-4-hydroxy-1-methyl-2-oxo-1,2-dihydroquinolin-7-yl)benzoic acid] | – | – | – | 11.4

More lines, now with the values ahead:

IC50 (HIF PHD2; [3]) [nM] | IC50 [1] [nM] | IC50 [2] [nM] | IC50 (HIF PHD2; [4]) [nM] | Compound
188 | 341 | 58 | – | Cn1c(=O)c(C(=O)NCC(=O)O)c(O)c2c(Br)cccc21 [Comparative Compound 1, reference compound]
351 | 404 | 115 | – | Cn1c(=O)c(C(=O)NCC(=O)O)c(O)c2cc(Br)ccc21 [Comparative Compound 2, reference compound]
46 | 351 | 111 | – | Cn1c(=O)c(C(=O)NCC(=O)O)c(O)c2ccc(Br)cc21 [Comparative Example 3, reference compound]
104 | 503 | 261 | – | Cn1c(=O)c(C(=O)NCC(=O)O)c(O)c2cccc(Br)c21 [Comparative Example 4, reference compound]
– | – | 5280 | 343 | Cn1c(=O)c(C(=O)CCC(=O)O)c(O)c2c(Br)cccc21 [Example 8, 4-(5-bromo-4-hydroxy-1-methyl-2-oxo-1,2-dihydroquinolin-3-yl)-4-oxobutanoic acid]

— patent US8349868B2, “Azaquinolones that inhibit prolyl hydroxylase” (Amgen Inc., priority 2007, dated 2013)
